# Data as given in ChEMBL document CHEMBL3137667, “[Drug-induced liver injury; fourteenth updated edition of the bibliographic database of liver injuries and related drugs]” (Gastroenterol Clin Biol, 2004).
# How the values were obtained:
# [1] = human
# [2] = Comments (NB not yet translated). [column 'COMMENTAIRES' in source]; conditions: human
# [3] = Times to onset, minimal and maximal, observed in the indexed observations. [column 'DELAI' in source]; conditions: human
# [4] = human; remark: listed apart in the source
# [5] = human, serum, 4383 h
# [6] = Highest frequency of acute liver toxicity observed during clinical trials, expressed as a percentage. [column '% AIGUE' in source]; conditions: human
# [7] = human; remark: listed apart in the source
# [8] = Highest frequency of moderate liver toxicity observed during clinical trials, expressed as a percentage. [column '% BIOL' in source]; conditions: human
# [9] = human, serum
# [10] = human; remark: listed apart in the source
# [11] = human; remark: listed apart in the source
# [12] = human; remark: listed apart in the source
# [13] = human; remark: listed apart in the source
# [14] = human; remark: listed apart in the source
# [15] = human, serum; remark: listed apart in the source
# [16] = human; remark: listed apart in the source
# 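Throughout, for Hepatotoxicity (association with vascular disease): count of indexed literature references reporting vascular liver injury in humans, e.g. peliosis hepatitis, hepatic veno-occlusive disease or Budd-Chiari syndrome.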
# 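Throughout, for Hepatotoxicity (benign tumour): value is a count of indexed literature references citing a benign tumour confirmed by histopathology.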
# 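Throughout, for Hepatotoxicity (choleostasis): human cholestatic liver injury, shown by histopathology or by peak ALT or AST elevation over alkaline phosphatase ratio below 2, value counts indexed literature reports.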
# 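Throughout, for Hepatotoxicity (chronic liver disease): chronic liver injury confirmed by histopathology or persistently raised serum aminotransferase activity beyond 6 months, value given as the count of indexed literature references.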
# 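Throughout, for Hepatotoxicity (cirrhosis): value is a count of indexed literature references reporting cirrhosis confirmed by histopathology.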
# 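Throughout, for Hepatotoxicity (cytolytic): human cytolytic liver injury, shown by histopathology or by a ratio above 5 of peak ALT or AST elevation to alkaline phosphatase elevation, value counts indexed references.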
# 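Throughout, for Hepatotoxicity (granulomatous hepatitis): value is a count of indexed literature references reporting granulomatous liver disease confirmed by histopathology.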
# 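Throughout, for Hepatotoxicity (malignant tumour): malignant tumour confirmed by histopathology, value gives the count of indexed literature references reporting it.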
# 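Throughout, for Hepatotoxicity (severe hepatitis): human clinical data: severe hepatitis, meaning potentially life-threatening liver failure or clinically observed cases, the value counts how many indexed literature references report it.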
# 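Throughout, for Hepatotoxicity (steatosis): steatosis confirmed by histopathology, value is the count of indexed references.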
Structure (SMILES),Hepatotoxicity (benign tumour) [1],Hepatotoxicity (comment) [2],Hepatotoxicity (time to onset) [3],Hepatotoxicity (steatosis) [4],Hepatotoxicity (chronic liver disease) [5],Hepatotoxicity (acute) [6] [%],Hepatotoxicity (severe hepatitis) [7],Hepatotoxicity (moderate) [8] [%],Hepatotoxicity (acute) [9],Hepatotoxicity (granulomatous hepatitis) [10],Hepatotoxicity (association with vascular disease) [11],Hepatotoxicity (cytolytic) [12],Hepatotoxicity (choleostasis) [13],Hepatotoxicity (cirrhosis) [14],Hepatotoxicity (moderate) [15],Hepatotoxicity (malignant tumour) [16],Hepatotoxicity (granulomatous hepatitis) ([10]; Liver)
CC(C)(Oc1ccc(C2CC2(Cl)Cl)cc1)C(=O)O (stereo not drawn) [CIPROFIBRATE],0,AC_ANTI-N,24 days - 15 months,0,1,0,1,7.7,3,0,0,2,1,1,7,0,–
O=C(O)C1N=C(c2ccccc2)c2cc(Cl)ccc2NC1=O (stereo not drawn) [CLORAZEPIC ACID],0,CHOLESTASE_PROLONGEE,2 months - 3 months,0,0,0,0,0,3,0,0,2,3,0,0,0,–
O=C(O)c1cc(=O)c2c(OCC(O)COc3cccc4oc(C(=O)O)cc(=O)c34)cccc2o1 [CROMOLYN],0,#CBP,4 months - 10 months,0,0,0,0,16.7,0,1,0,0,0,1,1,0,–
CC(CN(C)C)CN1c2ccccc2Sc2ccc(C#N)cc21 (stereo not drawn) [CYAMEMAZINE],0,CHOLANGITE #CIRROSE_BILIAIRE RC/DESIPRAMINE/TRIMIPRAMINE,2 days - 7 weeks,0,0,0,1,0,4,1,0,1,3,0,0,0,–
C[C@@H]1C[C@H]2[C@@H]3CCC4=CC(=O)C=C[C@]4(C)[C@@]3(F)[C@@H](O)C[C@]2(C)[C@@]1(O)C(=O)CO [DEXAMETHASONE],0,HEPATOMEGALIE,8 days - 18 days,0,0,0,0,24,0,0,0,0,0,0,2,0,–
CC/C(=C(/CC)c1ccc(OP(=O)(O)O)cc1)c1ccc(OP(=O)(O)O)cc1 [DIETHYLSTILBESTROL DIPHOSPHATE],0,NASH,3 months - 9 years,1,1,0,0,6.3,0,0,0,0,0,1,1,0,–
CC/C(=C(/CC)c1ccc(O)cc1)c1ccc(O)cc1 [DIETHYLSTILBESTROL],0,ANGIOSARCOME RC/TAMOXIFENE,4 days - 15 years,0,0,0,1,19,5,–,1,0,4,0,3,6,0
CN(C)CC/C=C1\c2ccccc2CSc2ccccc21 [DOTHIEPIN],0,RC/PAROXETINE,40 days - 69 days,1,0,0,0,4.5,3,0,0,2,2,0,1,0,–
C[C@]12CC[C@@H]3c4ccc(OS(=O)(=O)O)cc4CC[C@H]3[C@@H]1CCC2=O [ESTRONE SULFURIC ACID],1,HNF,3 months - 1 year,0,0,0,0,22.9,1,0,0,0,1,0,5,0,–
CCc1cccc2c3c([nH]c12)C(CC)(CC(=O)O)OCC3 (stereo not drawn) [ETODOLAC],0,AC_ANTI-N/-ML,4 days - 16 weeks,1,0,0,1,4,3,0,0,2,2,0,4,0,–
CC(=O)OCC(CCn1cnc2cnc(N)nc21)COC(C)=O [FAMCICLOVIR],0,REACTIVATION_HVB,12 weeks,0,0,0,1,0,1,0,0,0,0,0,0,0,–
CC(C(=O)O)c1cccc(Oc2ccccc2)c1 (stereo not drawn) [FENOPROFEN],0,RC/NAPROXENE,1 week - 7 weeks,0,0,0,0,7,3,0,0,2,1,0,1,0,–
Nc1nc(F)nc2c1ncn2[C@@H]1O[C@H](CO)[C@@H](O)[C@@H]1O [FLUDARABINE],0,REACTIVATION_HVB,8 months,0,0,0,1,42.9,2,0,0,1,0,0,5,0,–
